Assay results: PubChem BioAssay AID1996
≈ marks a conversion by molar mass, not a printed value.

Conditions: buffer; pH 7.4; 200.0 µM

Row | Structure (SMILES) | solubility kinetic [µg/mL]
1 | COc1ccc(CCNC(=O)C2CC=CCC2C(=O)O)cc1 (centres undefined) | > 45.5
2 | COc1ccc(OC)c(NC(=O)CC(NC(C)=O)c2ccccc2)c1 (centres undefined) | 45.3 (≈ 132 µM)
3 | CC(=O)c1cc2c(cc1NC(=O)Cc1c(C)noc1C)OCO2 | > 47.4
4 | Cc1cccc(C)c1OCCCCN1CCCCC1.O=C(O)C(=O)O | 45.4
5 | Cc1ccccc1C(=O)N1CCC(C(=O)NC2CCCC2)CC1 | 38.6 (≈ 123 µM)
6 | CC(C)(C)NC(=O)NC(=O)CN1CCN(c2ccccc2O)CC1 | 44.8 (≈ 134 µM)
7 | CSc1nc2sc3c(c2c(=O)n1CC(C)C)CC(C)(C)OC3 | < 0.4
8 | O=C1c2ccccc2C2(c3ccccc3)NCCCN12 (centres undefined) | > 39.6
9 | CC(=O)c1sc(NC(=O)CCCOc2ccccc2C)nc1C | < 0.4
10 | COc1ccccc1C(=O)NC(=O)COC(=O)C1CC1C (centres undefined) | > 43.7
11 | Cc1ccc(S(=O)(=O)NCC(=O)OCC(=O)N(CCC#N)c2ccccc2)cc1 | > 62.3
12 | O=C(CSc1cccc2cccnc12)Nc1ccccc1F | 7.3 (≈ 23.4 µM)
13 | Cc1ccc(NC(=O)COc2ccc(Br)cn2)cc1 | 17.7 (≈ 55.1 µM)
14 | Cc1cc(OCC(=O)Nc2ccccc2C)no1 | > 36.9
15 | Cc1cc2oc(=O)cc(Cn3ccnc3)c2cc1Cl | 34.3 (≈ 125 µM)
16 | CCc1ccc(S(=O)(=O)n2c(C)nc3ccccc32)cc1 | 40.3 (≈ 134 µM)
17 | CCOC(=O)/C(C#N)=C\C1=C(N2CCOCC2)CC(C)(C)OC1 | > 48.1
18 | O=C(O)CN1C(=O)C(=O)N(Cc2c(F)cccc2Cl)C1=O | 45.5 (≈ 145 µM)
19 | CC1(C)CC(=O)c2sc(NC(=O)c3ccccc3)nc2C1 | 22.6 (≈ 75.2 µM)
20 | O=C(Cn1c(=O)oc2ccccc21)NCCc1ccccc1Cl | 1.5 (≈ 4.53 µM)
21 | COc1ccc(Cl)cc1NC(=O)CN(C)Cc1cccs1 | 3 (≈ 9.24 µM)
22 | Cc1cc(NC(=O)CN2C(=O)NC(C)(c3ccc(Cl)cc3Cl)C2=O)no1 (centres undefined) | 7.4 (≈ 18.6 µM)
23 | O=C(Nc1ccccc1)c1ccc(NC(=O)C2CC2)cc1 | 1.2 (≈ 4.28 µM)
24 | Cc1cc(C(=O)O/N=C(\N)c2ccncc2)ccc1[N+](=O)[O-] | 25.1 (≈ 83.6 µM)

Row | Structure (SMILES) | solubility kinetic [µg/mL]
25 | COc1ccccc1-n1c(SCC(=O)O)nc2sc3c(c2c1=O)CCC3 | 41.8 (≈ 108 µM)
26 | CCOc1ccc(C(=O)NCC(c2ccco2)N2CCOCC2)cc1 (centres undefined) | > 51.7
27 | COC(=O)Nc1ccc2c(c1)Nc1ccccc1CC2 | 0.5 (≈ 1.86 µM)
28 | COc1cc2c(cc1OC)CN(C(=O)c1ccc(Cl)c(S(=O)(=O)N3CCCC3)c1)CC2 | > 69.7
29 | CCN(CC)S(=O)(=O)c1cc(NC(=O)NCCCl)ccc1C | > 52.2
30 | CN(C)/C=C(\C#N)S(=O)(=O)c1ccccc1 | > 35.4
31 | Cc1ccsc1C(=O)OCC(=O)NCCc1ccccc1 | 10.4 (≈ 34.3 µM)
32 | Cc1c(O)ccc(C(=O)CN2CC(C)OC(C)C2)c1O (centres undefined) | > 41.9
33 | Clc1ccc(-c2nsc(N3CCOCC3)n2)c(Cl)c1 | 4 (≈ 12.6 µM)
34 | CC1CCCCC1NC(=O)COC(=O)c1cc(=O)c2ccccc2o1 (centres undefined) | > 51.5
35 | O=[N+]([O-])c1ccc(SCCc2ccccn2)cc1 | 30.6 (≈ 118 µM)
36 | O=C(NCCCn1ccnc1)c1ccc(Cl)s1 | > 40.5
37 | Nc1nc(NCc2ccco2)nc(Nc2cccc(F)c2)c1[N+](=O)[O-] | 0.3 (≈ 0.871 µM)
38 | CCOc1ccc(OCc2ccc(C(=O)NC(C)C)o2)cc1 | 13.3 (≈ 43.8 µM)
39 | COc1ccc(NC(=O)Nc2ccc(F)cc2)cn1 | > 39.2
40 | COc1ccc(CCC(=O)NCCOc2ccc(C)cc2)cc1 | 24 (≈ 76.6 µM)
41 | O=C(NCCc1ccc(Cl)cc1)C12CC3CC(CC(O)(C3)C1)C2 | 46.9 (≈ 140 µM)
42 | CC1(/[N+]([O-])=C/c2ccc(F)cc2)CCCCC1=O (centres undefined) | 28.3 (≈ 114 µM)
43 | COc1ccc(CCNC(=O)C(=O)NCc2ccccn2)cc1 | > 47
44 | COC(=O)c1cccc(NC(=O)NC(=O)c2ccccc2Cl)c1 | 0.6 (≈ 1.8 µM)
45 | O=C(COC(=O)COc1ccccc1)Nc1cccnc1Cl | > 48.1
46 | CCn1c(O)c(C=Nc2ccccc2)sc1=O | 0.5 (≈ 2.01 µM)
47 | Cc1ccc(C)c(OCCCNCc2ccccc2)c1.O=C(O)C(=O)O | > 53.9
48 | O=[N+]([O-])c1ccc(-c2nc(NCC3CCCO3)c3ccccc3n2)cc1 (centres undefined) | 0.6 (≈ 1.71 µM)

Row | Structure (SMILES) | solubility kinetic [µg/mL]
49 | COc1c(Cl)ccc(Cl)c1C(=O)NCc1ccco1 | > 45
50 | CC[N+](CC)(CC#CCO)CC#Cc1ccccc1.[Br-] | 44.2
51 | CSCC[C@H](NC(=O)NC1CCCC1)C(=O)O | > 39.1
52 | CCn1c(=O)c2sccc2n(Cc2cccc(C)c2)c1=O | 9 (≈ 30 µM)
53 | Cc1ccc(/C=C/C(=O)O)cc1S(=O)(=O)Nc1ccc(C(=O)O)cc1 | 42.4 (≈ 117 µM)
54 | Brc1cccc(CN2CCN(c3ncccn3)CC2)c1 | 25.2 (≈ 75.6 µM)
55 | O=C(c1ccc(F)cc1F)N1CCCc2ccccc21 | > 41
56 | [Br-].c1ccc(Cc2cc[n+](Cc3ccccn3)cc2)cc1 | > 51.2
57 | O=C(CCCl)N1CCCC2(CCCCC2)C1 | 30.1 (≈ 123 µM)
58 | Cc1cccc(/C(N)=N/OC(=O)c2cccc3ccccc23)c1 | 1.1 (≈ 3.61 µM)
59 | CN(C(=O)CSc1ncccn1)C1CCS(=O)(=O)C1 (centres undefined) | 42.2 (≈ 140 µM)
60 | CN(C1CCCCC1)S(=O)(=O)c1ccc(SCC(=O)C(C)(C)C)nc1 | 3.2 (≈ 8.32 µM)
61 | Cc1ccccc1-n1cc[nH]c1=S | > 28.5
62 | Nc1nc(SC23CC4CC(CC(C4)C2)C3)ns1 | < 0.2
63 | CC(=O)C(C(C)=O)C(c1ccccc1)c1nc2ccccc2[nH]c1=O (centres undefined) | 0.9 (≈ 2.69 µM)
64 | Cc1cc(=O)n2c3ccccc3n(CC(O)CN3CCOCC3)c2c1C#N (centres undefined) | > 55
65 | Cc1cccc(NC(=O)CN2CCOCC2)c1C | > 37.2
66 | COc1ccc(-c2nc(C#N)c(N3CCCCC3)o2)cc1 | 0.3 (≈ 1.06 µM)
67 | Cl.Nc1ccc(Oc2cc(N)cc(Oc3ccccc3)c2)cc1 | 30.1
68 | CC(=O)N(CCC1(C(C)C)CCOC(C)(C)C1)C(C)c1cccs1 (centres undefined) | 51.1 (≈ 145 µM)
69 | O=C1Nc2ccc(Br)cc2C1=C1CCCCC1 | 7.4 (≈ 25.3 µM)
70 | CCN(C(=O)c1ccco1)c1nc(-c2ccc(OC)cc2)cs1 | < 0.4
71 | CCCn1c(COc2ccccc2)nc2ccccc21 | 37.4 (≈ 140 µM)
72 | O=C(Cc1ccccc1)NCC(=O)Nc1cccc(Cl)c1 | 10 (≈ 33 µM)

Row | Structure (SMILES) | solubility kinetic [µg/mL]
73 | COC(=O)c1ccccc1C(=O)N(c1ccccc1)c1ccccc1 | 44.4 (≈ 134 µM)
74 | CCC(Sc1nc2ccccc2o1)C(=O)O (centres undefined) | 35.2 (≈ 148 µM)
75 | COc1ccc(NC(=O)CSc2nnc(N)s2)c([N+](=O)[O-])c1 | > 51.2
76 | Cc1cc(C)cc(OCCn2ccnc2)c1 | 29.3 (≈ 135 µM)
77 | O=C1NC2(CCCCC2)C(=O)N1c1cccc(Cl)c1 | 11.1 (≈ 39.8 µM)
78 | CC1CCN(C(=O)CCCC(=O)N2CCC(C)CC2)CC1 | > 44.2
79 | O=C(CN1CCN(c2ccccn2)CC1)Nc1ccccc1F | 42.3 (≈ 135 µM)
80 | Cc1c(C)n(CCCN(C)C)c2ncnc(NCc3ccccc3)c12 | > 50.6
81 | COc1cccc(C(=O)Nc2sc3c(c2C(=O)O)CCCC3)c1 | > 49.7
82 | O=C(CN1C(=O)C(=O)c2ccccc21)c1ccccc1 | 33.8 (≈ 127 µM)
83 | O=C(Cc1ccc(F)cc1)N1CCN(c2ccc([N+](=O)[O-])cc2)CC1 | 3.5 (≈ 10.2 µM)
84 | COC(OC)C1(C)C(C#N)=C(N)Oc2c1c(=O)oc1ccccc21 (centres undefined) | 5.3 (≈ 16.1 µM)
85 | COCCNCC(=O)Nc1ccc(OC(F)(F)F)cc1.Cl | 48.8
86 | O=C(O)c1ccccc1-c1ccccc1C(=O)NCc1ccccc1F | 38.4 (≈ 110 µM)
87 | COC(=O)C1(NC(=O)NC2CCCCC2)CCCCC1 | > 42.4
88 | COc1cc(NC(=O)c2ccccc2)c(OC)cc1NC(=O)Cc1ccc(F)cc1 | < 0.4
89 | COc1ccc2nc(NC(=O)C34CC5CC(CC(NC(C)=O)(C5)C3)C4)sc2c1 | 41.2 (≈ 103 µM)
90 | CCNC(=S)N1CCN(Cc2ccc3c(c2)OCO3)CC1 | > 46.1
91 | CC1=C(Cl)C2=NS(=O)(=O)CCN2C=C1Cl | > 40.1
92 | Cn1cccc1CNC(=S)Nc1ccccc1Cl | 36.4 (≈ 130 µM)
93 | COc1ccc(F)cc1S(=O)(=O)n1cnc2ccccc21 | 28.3 (≈ 92.4 µM)
94 | CN1CCN(C(=S)NC(CC(=O)c2ccccc2)c2ccccc2)CC1 (centres undefined) | 43.2 (≈ 118 µM)
95 | COc1cc(OC)c(OC)cc1CN1CCC(O)CC1.Cl | > 47.7
96 | Cc1[nH]c(=O)c(S(=O)(=O)c2ccccc2)c(C)c1Cl | 44.2 (≈ 148 µM)

Row | Structure (SMILES) | solubility kinetic [µg/mL]
97 | O=C(COC(=O)CCC(=O)c1cccs1)NCCc1ccccc1 | > 51.8
98 | COc1ccccc1CC(=O)N1CCN(CCc2ccccc2)CC1 | > 50.8
99 | COc1cccc(C(=O)NCC2(c3ccccc3)CCCC2)c1OC | 15.3 (≈ 45.1 µM)
100 | CSc1ccc(S(=O)(=O)N2CCC(C(=O)NC3CC3)CC2)cc1 | 36 (≈ 102 µM)
101 | CCOC(=O)c1c(C)n(C)c2cc([N+](=O)[O-])c(O)c([N+](=O)[O-])c12 | 44.9 (≈ 139 µM)
102 | COc1ccc(OC)c(S(=O)(=O)N2CCNCC2)c1 | 38.1 (≈ 133 µM)
103 | Cc1cc(NC(=O)CSc2nncn2-c2ccccc2)no1 | > 47.3
104 | Cc1cc(C(=O)OCC(=O)NC2CCCC(C)C2C)c(C)o1 (centres undefined) | 12.4 (≈ 40.3 µM)
105 | Cc1cc(C)n(-c2cc(C(=O)O)cc(C(=O)O)c2)n1 | > 39
106 | O=C(NCCCN1CCOCC1)c1cn(-c2ccccc2)nc1-c1ccc(F)cc1 | > 61.3
107 | O=C(Nc1nnc(C2=COCCO2)o1)c1cccc(F)c1 | > 43.7
108 | CC(=O)c1c(C)[nH]c(C(=O)CN(C)CC(=O)Nc2ccccc2Cl)c1C | > 56.4
109 | O=C(Nc1ccccc1F)c1c[nH]c(=O)[nH]c1=O | 5.5 (≈ 22.1 µM)
110 | O=C(COC(=O)c1cnccn1)c1ccc(Cl)c([N+](=O)[O-])c1 | > 48.3
111 | CCCC(=O)N1CCCC(c2nc(-c3cccc(OC)c3)no2)C1 (centres undefined) | > 49.4
112 | O=C(Nc1ccc(S(=O)(=O)NC2=NCCCCC2)cc1)c1cccs1 | > 56.6
113 | CCc1c(C)sc(NC(=S)Nc2nc(C)cc(C)n2)c1C(=O)OC | < 0.2
114 | CCCCCCNc1nc(Cl)nc(NC(C)(C)CO)n1 | 3.1 (≈ 10.3 µM)
115 | COC(=O)C(C)Oc1ccc(-c2nccc(-c3ccccn3)n2)cc1 (centres undefined) | 3.3 (≈ 9.84 µM)
116 | O=C(NCC1CCCO1)c1cc2ccccc2o1 (centres undefined) | > 36.8
117 | NS(=O)(=O)c1cccc(NC(=O)CC2(CC(=O)O)CCCC2)c1 | 41.7 (≈ 123 µM)
118 | Cc1ccc(S(=O)(=O)/N=C(/Nc2ccc([N+](=O)[O-])cc2[N+](=O)[O-])c2ccccc2)cc1 | 5.9 (≈ 13.4 µM)
119 | COc1cccc(CNC(=O)N2CCN(c3ccccc3)CC2)c1 | 20.5 (≈ 63 µM)
